Reference: US4316898A, “Cephalosporins” (Boehringer Ingelheim KG, priority 1979, dated 1982)
Values after ≈ are worked out from the molar mass of the structure shown.

What was measured:
[1] = system: Staphylococcus aureus SG 511; experiment: Serial dilution test in the microtiter system, MIC against S. aureus SG 511; type: cell-based; details: SG511, minimum inhibitory concentration, 37° C., 18 to 20 hours
Experimental: (§1) The tests were performed using the serial dilution test in the microtiter system. The effect of the test compounds on bacteriostasis was examined at the following concentrations: 80, 40, 20, 10, 5, 2.5, 1.25, 0.6, 0.3, 0.08 and 0.02 μgm/ml. The nutrient medium consisted of 10 gm of peptone, 8 gm of meat extract oxoid, 3 gm of sodium chloride, and 2 gm of sec. sodium phosphate diluted with distilled water to […] (pH 7.2-7.4). Only in the test against streptococci 1% of glucose was added. The age of the primary cultures was approximately 20 hours. The standardization of the bacteria suspension was effected using a photometer according to the method of Eppendorf (test tube .phi. 14 mm, filter 546 nm), using for comparison a barium sulfate suspension formed by the addition of 3.0 ml of 1% barium chloride solution to 97 ml of 1% sulfuric acid. After the standardization,Streptococcus aronson was further diluted to a concentration of 1:15, and the other bacteria to a concentration of 1:1500, using a sodium chloride solution.
(§2) 16 mgm of the particular test compound were put into a 10 ml measuring flask, and the flask was subsequently filled to the mark with solvent. The further dilution series was standardized with distilled water or the appropriate solvent.
(§3) The cavities of the microtiter plates were filled with 0.2 ml of nutrient medium. 0.01 ml of the appropriate test compound solution was then added, followed by inoculation with 0.01 ml of the standardized bacteria suspension. The bacteria were incubated at 37° C. for 18 to 20 hours. Control tests using only the solvent were carried out simultaneously.
(§4) The measurement was carried out macroscopically to determine the minimum inhibitory concentration (the lowest still bacteriostatically effective concentration).
(§5) The following test organisms were used:
(§6) Staphylococcus aureus SG 511, St. aureus E 88 (β-lactamase carrier), Escherichia coli ATCC 11 775, Pseudomonas aeruginosa Hamburgensis and Pseudomonas aeruginosa Walter, Serratia macrescens ATCC 13 880, Klebsiella pneumoniae ATCC 10 031 and 272, Proteus mirabilis Hamburgensis, Proteus rettgeri Eb. cloaceae ATCC 13047, and E. coli R+TEM (β-lactamase carrier).
(§7) The following tables show the determined minimum inhibitory concentrations (MIC) for a few representative compounds (E=Na) of the present invention, and two known cephalosporins for comparison: […]

St. aureus E 88 = experiment: Serial dilution test in the microtiter system, MIC against S. aureus E 88 (β-lactamase carrier); type: cell-based; details: Staphylococcus aureus, E88, minimum inhibitory concentration, 37° C., 18 to 20 hours
Experimental: as §1, §2, §3, §4, §5, §6, §7

[2] = system: Escherichia coli ATCC 11 775; experiment: Serial dilution test in the microtiter system, MIC against E. coli ATCC 11775; type: cell-based; details: minimum inhibitory concentration, 37° C., 18 to 20 hours
Experimental: as §1, §2, §3, §4, §5, §6, §7

[3] = system: Pseudomonas aeruginosa Hamburgensis; experiment: Serial dilution test in the microtiter system, MIC against Pseudomonas aeruginosa Hamburgensis; type: cell-based; details: minimum inhibitory concentration, 37° C., 18 to 20 hours, read-out: MIC, Pseud. aerug. Hbg.
Experimental: as §1, §2, §3, §4, §5, §6, §7

[4] = system: Pseudomonas aeruginosa Walter; experiment: Serial dilution test in the microtiter system, MIC against Pseudomonas aeruginosa Walter; type: cell-based; details: minimum inhibitory concentration, 37° C., 18 to 20 hours, read-out: MIC, Pseud. aerug. Walter
Experimental: as §1, §2, §3, §4, §5, §6, §7

[5] = system: Klebsiella pneumoniae ATCC 10 031; experiment: Serial dilution test in the microtiter system, MIC against Klebsiella pneumoniae ATCC 10031; type: cell-based; details: minimum inhibitory concentration, 37° C., 18 to 20 hours, read-out: MIC, Klebs. pneum. ATCC 10031
Experimental: as §1, §2, §3, §4, §5, §6, §7

[6] = system: Klebsiella pneumoniae 272; experiment: Serial dilution test in the microtiter system, MIC against Klebsiella pneumoniae 272; type: cell-based; details: minimum inhibitory concentration, 37° C., 18 to 20 hours, read-out: MIC, Klebs. pneum. 272
Experimental: as §1, §2, §3, §4, §5, §6, §7

[7] = system: Proteus mirabilis Hamburgensis; experiment: Serial dilution test in the microtiter system, MIC against Proteus mirabilis Hamburgensis; type: cell-based; details: minimum inhibitory concentration, 37° C., 18 to 20 hours, read-out: MIC, Prot. Mir. Hbg.
Experimental: as §1, §2, §3, §4, §5, §6, §7

Proteus rettgeri = experiment: Serial dilution test in the microtiter system, MIC against Proteus rettgeri; type: cell-based; details: Providencia rettgeri; minimum inhibitory concentration; 37° C., 18 to 20 hours; read-out: MIC, Prot. rettg.
Experimental: as §1, §2, §3, §4, §5, §6, §7

Eb. cloaceae ATCC 13047 = experiment: Serial dilution test in the microtiter system, MIC against Eb. cloaceae ATCC 13047; type: cell-based; details: minimum inhibitory concentration; 37° C., 18 to 20 hours
Experimental: as §1, §2, §3, §4, §5, §6, §7

E. coli R+TEM = experiment: Serial dilution test in the microtiter system, MIC against E. coli R+TEM (β-lactamase carrier); type: cell-based; details: Escherichia coli, read-out: MIC, E. coli R + TEM
Experimental: as §1, §2, §3, §4, §5, §6, §7

[8] = system: Serratia macrescens ATCC 13 880; experiment: Serial dilution test in the microtiter system, MIC against Serratia marcescens ATCC 13880; type: cell-based; details: read-out: MIC, Serr. marcesc. ATCC 13880
Experimental: as §1, §2, §3, §4, §5, §6, §7

E. coli ATCC 11775 = experiment: In vivo test in mice against experimental E. coli infection; set-up: species or system Female NMRI mice; details: Escherichia coli, ATCC11775, sc, 168 h; subcutaneous; per dose; dose at which 50% of the animals survived; observation 7 days
Experimental: (§8) A series of the compounds according to the invention was tested in vivo in mice against experimental infections. As pathogenic bacteria were used E. coli ATCC 11775 and Pseudomonas aeruginosa Walter. An intraperitoneal infection was induced in each mouse with 0.2 ml of a 5% mucin suspension of the bacteria corresponding of approximately 1.4×10^6 E. coli cells and 1.3×10^6 Pseudomonas cells per mouse. Female NMRI mice were used, divided into groups of 10 animals. Two groups were untreated and the remaining groups were treated with different doses of the cephalosporins to be tested to determine the ED50 (dose at which 50% of the animals survived). The groups infected with E. coli were on the first day treated with the test compound three times ([…] post infectionem) and on the second day twice. The groups with the Pseudomonas infection were on the first day treated with the test compound six times (1, 3, 5, 7, 9 and 11 hours post infectionem), and on the following two days twice.
(§9) The observation time was in both cases 7 days.

[9] = system: Pseudomonas aeruginosa Walter; experiment: In vivo test in mice against experimental Pseudomonas infection; set-up: species or system Female NMRI mice; details: Pseudomonas aeruginosa, sc, 168 h; subcutaneous; per dose; dose at which 50% of the animals survived; observation 7 days
Experimental: as §8, §9

Structure (SMILES) | MIC [1] | MIC (St. aureus E 88) | MIC [2] | MIC [3] | MIC [4] | MIC [5] | MIC [6] | MIC [7] | MIC (Proteus rettgeri) | MIC (Eb. cloaceae ATCC 13047) | MIC (E. coli R+TEM) | MIC [8] | ED50 (E. coli ATCC 11775) | ED50 [9]
Cc1nnc(SCC2=C(C(=O)O)N3C(=O)[C@@H](NC(=O)Cn4cnnn4)[C@H]3SC2)s1 [Cephazolin, reference compound] | 0.06 µg/mL (≈ 0.132 µM) | 8 µg/mL (≈ 17.6 µM) | 4 µg/mL (≈ 8.8 µM) | > 100 µg/mL | > 100 µg/mL | 1 µg/mL (≈ 2.2 µM) | 2 µg/mL (≈ 4.4 µM) | 4 µg/mL (≈ 8.8 µM) | > 100 µg/mL | > 100 µg/mL | 4 µg/mL | > 100 µg/mL | – | –
CNS(=O)(=O)c1ccc(Nc2ncc(NC(=O)N[C@@H](C(=O)N[C@@H]3C(=O)N4C(C(=O)O)=C(COC(C)=O)CS[C@H]34)c3ccc(O)cc3)c(O)n2)cc1 [H] | 1 µg/mL (≈ 1.35 µM) | 16 µg/mL (≈ 21.5 µM) | 0.13 µg/mL (≈ 0.175 µM) | 4 µg/mL (≈ 5.39 µM) | 4 µg/mL (≈ 5.39 µM) | 0.5 µg/mL (≈ 0.673 µM) | 0.5 µg/mL (≈ 0.673 µM) | 0.6 µg/mL (≈ 0.808 µM) | 0.5 µg/mL (≈ 0.673 µM) | 2 µg/mL (≈ 2.69 µM) | 16 µg/mL | 0.5 µg/mL (≈ 0.673 µM) | – | –
Cn1nnnc1SCC1=C(C(=O)O)N2C(=O)[C@@H](NC(=O)[C@H](NC(=O)Nc3cnc(C4CC4)nc3O)c3ccc(O)cc3)[C@H]2SC1 [A] | 0.5 µg/mL (≈ 0.764 µM) | 8 µg/mL (≈ 12.2 µM) | 0.5 µg/mL (≈ 0.764 µM) | 8 µg/mL (≈ 12.2 µM) | 8 µg/mL (≈ 12.2 µM) | 1 µg/mL (≈ 1.53 µM) | 1 µg/mL (≈ 1.53 µM) | 0.5 µg/mL (≈ 0.764 µM) | 2 µg/mL (≈ 3.05 µM) | 2 µg/mL (≈ 3.05 µM) | 8 µg/mL | 2 µg/mL (≈ 3.05 µM) | 1.6 mg/kg | 15.2 mg/kg
Cn1nnnc1SCC1=C(C(=O)O)N2C(=O)[C@@H](NC(=O)C(NC(=O)Nc3cnc(NC4CCC(O)CC4)nc3O)c3cccs3)[C@H]2SC1 (stereo partly shown) [F] | 1 µg/mL (≈ 1.39 µM) | 8 µg/mL (≈ 11.1 µM) | 0.5 µg/mL (≈ 0.697 µM) | 16 µg/mL (≈ 22.3 µM) | 16 µg/mL (≈ 22.3 µM) | 2 µg/mL (≈ 2.79 µM) | 2 µg/mL (≈ 2.79 µM) | 0.5 µg/mL (≈ 0.697 µM) | 2 µg/mL (≈ 2.79 µM) | 4 µg/mL (≈ 5.57 µM) | 16 µg/mL | 2 µg/mL (≈ 2.79 µM) | – | –
Cn1nnnc1SCC1=C(C(=O)O)N2C(=O)[C@@H](NC(=O)[C@H](NC(=O)Nc3cnc(NC4CCC(O)CC4)nc3O)c3ccc(O)cc3)[C@H]2SC1 (stereo partly shown) [C] | 1 µg/mL (≈ 1.37 µM) | 8 µg/mL (≈ 11 µM) | 0.13 µg/mL (≈ 0.179 µM) | 4 µg/mL (≈ 5.5 µM) | 4 µg/mL (≈ 5.5 µM) | 0.5 µg/mL (≈ 0.687 µM) | 0.5 µg/mL (≈ 0.687 µM) | 0.13 µg/mL (≈ 0.179 µM) | 1 µg/mL (≈ 1.37 µM) | 0.5 µg/mL (≈ 0.687 µM) | 8 µg/mL | 0.5 µg/mL (≈ 0.687 µM) | 0.4 mg/kg | 4.2 mg/kg
Cn1nnnc1SCC1=C(C(=O)O)N2C(=O)[C@@H](NC(=O)C(NC(=O)Nc3cnc(Nc4ccc(S(N)(=O)=O)cc4)nc3O)c3cccs3)[C@H]2SC1 (stereo partly shown) [M] | 0.5 µg/mL (≈ 0.645 µM) | 4 µg/mL (≈ 5.16 µM) | 0.13 µg/mL (≈ 0.168 µM) | 4 µg/mL (≈ 5.16 µM) | 4 µg/mL (≈ 5.16 µM) | 0.25 µg/mL (≈ 0.323 µM) | 0.25 µg/mL (≈ 0.323 µM) | 0.13 µg/mL (≈ 0.168 µM) | 0.5 µg/mL (≈ 0.645 µM) | 0.5 µg/mL (≈ 0.645 µM) | 4 µg/mL | 0.25 µg/mL (≈ 0.323 µM) | – | –
